Drawing on ChEMBL document CHEMBL1147199, “Exploration of the correlation between the structure, hemolytic activity, and cytotoxicity of steroid saponins” (Bioorg Med Chem, 2007), this text covers hemolysis and HC50 for two compounds.

What all share (assay type): cell-based, Erythrocyte
A short description of series [1]: Cytotoxicity against human erythrocytes assessed as hemolytic activity at 50 ug/ml after 60 mins. The following applies: read-out: Activity.
A short description of series [2]: Cytotoxicity against human erythrocytes assessed as hemolytic activity after 60 mins. The following applies: read-out: HD50.
Series [3] can be described thus: Cytotoxicity against human erythrocytes assessed as hemolytic activity at 30 ug/ml after 60 mins. The following applies: read-out: Activity.

On to `CC(=O)O[C@@H]1[C@@H](O)[C@@H](O)[C@H](OC[C@H]2O[C@@H](O[C@H]3CC[C@@]4(C)C(=CC[C@H]5[C@@H]6C[C@@H]7O[C@]8(CC[C@@H](C)CO8)[C@@H](C)[C@@H]7[C@@]6(C)CC[C@@H]54)C3)[C@H](O)[C@@H](O)[C@@H]2O)O[C@H]1C`, for which the hemolysis at 1 h, 50 ug/ml in series [1] is 12%. For the same compound, the HC50 at 1 h in series [2] was over 50 µM.
On to `CC(=O)O[C@H]1C[C@@H]2[C@H](CC[C@]3(C)[C@@H]4[C@H](C[C@@H]23)O[C@]2(CC[C@@H](C)CO2)[C@H]4C)[C@@]2(C)C[C@@H](O)[C@H](O[C@@H]3O[C@H](CO)[C@@H](O[C@H]4O[C@H](C)[C@@H](O)[C@H](O)[C@@H]4O)[C@H](O)[C@H]3O[C@H]3O[C@H](C)[C@@H](O)[C@H](O)[C@@H]3O)C[C@H]12`, for which, in series [3], the hemolysis at 1 h, 30 ug/ml was 34%. Besides, the HC50 at 1 h in series [2] was over 30 µM.
